{"source": "paper PMC6614406", "about": "“Phylogenetic and crystallographic analysis of Nostoc phycocyanin having blue-shifted spectral properties” (Scientific Reports, 2019)", "key": {"[1]": {"target": "T1, Nostoc sp. R76DM phycocyanin (N-PC) (Nostoc, UniProt A0A5H1ZR40+A0A5H1ZR41)", "T1 construct": "native, purified from Nostoc sp; R76DM cells; (alpha3beta3)2 hexamer; subunits near 18 kDa on SDS-PAGE; chromophores covalently attached", "T1 sequence (A0A5H1ZR41 entry or part of it)": "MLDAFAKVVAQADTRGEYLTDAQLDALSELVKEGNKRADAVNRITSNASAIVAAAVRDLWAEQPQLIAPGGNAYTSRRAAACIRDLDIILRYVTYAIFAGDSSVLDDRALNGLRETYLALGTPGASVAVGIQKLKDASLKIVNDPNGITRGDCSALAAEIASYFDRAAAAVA", "T1 sequence (A0A5H1ZR40 entry or part of it)": "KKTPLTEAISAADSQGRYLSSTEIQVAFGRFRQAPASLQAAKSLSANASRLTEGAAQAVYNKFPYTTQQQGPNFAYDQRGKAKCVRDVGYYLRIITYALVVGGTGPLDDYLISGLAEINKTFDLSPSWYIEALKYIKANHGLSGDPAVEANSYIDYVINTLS", "test": "X-ray crystal structure ([…] Å)", "assay_type": "binding", "conditions": "covalent; native chromophore attached to alpha Cys84, beta Cys82 and beta Cys153; 18 PCB per hexamer"}, "[2]": {"target": "Nostoc sp. R76DM phycocyanin αβ heterodimer (αβ monomer) (Nostoc sp. R76DM)", "test": "crystal structure; N-PC at 10 mg/mL, sitting drop vapor diffusion, 0.2 M sodium malonate, 20% (w/v) PEG 3350, 25 °C; space group P21, 2.35 Å; one (α3β3)2 hexamer in the asymmetric unit"}}}
{"compound": "C/C=C1/C(=C/c2[nH]c(/C=C3N=C(/C=C4\\NC(=O)C(CC)=C4C)C(C)=C\\3CCC(=O)O)c(CCC(=O)O)c2C)NC(=O)[C@@H]1C", "note": "[phycocyanobilin]", "values": [{"measurement": "X-ray crystal structure (2.35 Å)", "setting": "[1]", "value": "The N-PC contains three PCB chromophores; one is attached covalently with Cys84 of α-subunit"}]}
{"compound": "Nostoc sp. R76DM phycocyanin αβ heterodimer (αβ monomer) (complex)", "values": [{"measurement": "stoichiometry N", "setting": "[2]", "value": 6}]}
